Results taken from patent publication US5260210A, “Blood-brain barrier model” (priority 1990, dated 1993).
“And” between values parts separate entries of the source, which are not always exact repeats. Equal values may be shown once. Read-outs that look alike come from different tables or passages of the source.

Legend:
blood-brain barrier [1] = settings: in vivo; cited from earlier work
[2] = Behavioral assay: opioid-induced analgesia, hot plate; assay type: in vivo, mouse; settings: Table 9, enkephalin 20 mg/kg
Experimental: Morphine and the naturally occurring opioid peptides, endorphin and enkephalin, bind to μ opioid receptors in the brain and suppress the sensation of pain. […] Mice are placed on a surface uniformly heated to 55° C. The time it takes for the mouse to respond to the heat stimulus by licking its front or hind paws is measured. […] The latency is expressed as % analgesia. [formula] The purpose of these experiments is to test the ability of putative BBB openers to shift the morphine dose response curve to lower doses and thus have analgesic activity when delivered peripherally.

brain endothelial cells = assay: Leukocyte binding to cultures of blood brain barrier endothelial cells; assay type: cell-based, bovine or human; settings: Table 14; Jurkat T-cell; + TNFα; two values per cell
Experimental: When used to treat lymphocytes, the anti-β-1 hybridoma supernatant was used at a 1:2 dilution. The anti-α-4 antibody was purified by the manufacturer, and used at a 5 μg/ml concentration. The anti-β-2 was purified by the manufacturer, and used at 5 μg/ml. For treatment of lymphocytes, the lymphocytes were mixed with the above concentrations of antibody, and allowed to incubate on ice for a about 30 minutes prior to use. The cells were washed to remove unbound antibody, and resuspended in RPMI to a typical concentration of 10^7 cells/ml.
Bovine or human brain endothelial cells were maintained in accordance with the blood brain barrier model as described in the present specification. […]
In this manner, the endothelial cells were exposed to the agent on their ablumenal surface, as would be the typical situation during an inflammatory reaction in the brain. Immediately before the assay, the electrical resistance of the cultures was measured and the filters (supporting the endothelial cells) were washed at room temperature by dipping in three separate vats of D-MEM with 1% FBS and 20 mM Hepes (200 mls. each). […]
In the second method, the leukocytes were prelabeled with a radioactive tracer and the degree of binding was quantified by measuring the amount of radioactivity associated with the entire endothelial surface on the culture filter. […]

[3] = tested on: bovine brain capillary endothelial cells; assay: Transmonolayer (transendothelial cell) electrical resistance in the in vitro BBB model; settings: for effect of phosphodiesterase inhibitors on resistance: FIG. 7, Rolipram or RO-20-1724 17.5 μM, by 30 minutes, no other cyclic AMP elevating agents; for activity at 0.01 µM / activity at 0.03 µM / activity at 0.1 µM / activity at 0.2 µM: Bos taurus, Endothelial cell, read-out: Resistance (% of control)
Experimental: The degree of tightness of tight junctions can be also assessed by transcellular electrical resistance measurements. For transendothelial cell resistance measurements, cells were grown on a porous solid support, e.g., a filter or membrane attached to a holding device in order adequately to suspend the cellular monolayer, such as the Costar Transwell apparatus or the ICN Cellogen. […] Cells were maintained in a growth medium or physiological saline, and calomel electrodes on each of the endothelial cells are connected by a saturated KCl - 3% agar bridge. Current is passed between two Ag--AgCl electrodes and the voltage measured with a Keithly multimeter. Resistance is calculated from the change in voltage across the monolayer induced when a short current pulse (10-100 μamp) is applied. The resistance of the filter or membrane alone is subtracted. The resistance, multiplied by the surface area of the filter or membrane, yields the resistance in ohms-cm^2.
Bovine brain capillary endothelial cells were grown on polycarbonate filters in a conditioned growth medium containing either 5% or 10% PDHS. In controls, the growth medium contained 5% PDHS (.quadrature.) or 10% PDHS. […]
Bovine brain endothelial cells were dissociated and plated on tissue culture dishes in 50% MEM/FCS - 50% ADCM. […]
Bovine brain microvascular endothelial cells were isolated and grown on permeable filters in the BBB in vitro model of the invention. Cells were maintained in astrocyte-derived conditioned medium, but were not treated with agents that elevate cyclic AMP levels in such cells.
Resistance was then measured at various times.
The medium containing these cyclic AMP elevating agents was removed, and the cells were washed with fresh growth medium.

[4] = tested on: Type III cyclic GMP-noninhibitable phosphodiesterase; assay: Inhibition of cyclic AMP phosphodiesterase of brain microvascular endothelial cells
blood-brain barrier [5] = assay: Brain uptake of ^3 H-sucrose and ^125 I-BSA after intracarotid infusion; assay type: in vivo
Experimental: Staurosporine was administered by intracarotid infusion. The transport of ^3 H-sucrose and ^125 I-BSA was then determined. The data in Table 7 represent the amount of radioactivity remaining in the brain after infusion and washout. An average of 3-4 animals was used in each category.

blood-brain barrier [6] = assay: In vivo tracer experiment: brain uptake of ^3 H-sucrose and ^125 I-BSA after i.v. injection; parameters: species or system mouse; settings: Example 11 text
Experimental: The test compound was delivered to a restrained, unanesthetized mouse (30-35 g) via the tail vein. […] Fifteen or sixty minutes after the injection, the animal, anesthetized with 2% Avertin, was perfused via venipuncture with phosphate buffered saline followed by fixative. The brain was removed immediately, the medulla, pons and hypothalamus excised and the remaining tissue homogenized by passsage through a 3 cc needle into a preweighed scintillation vial containing 1.5 ml Soluene (Packard). The vial was weighed to determine wet tissue weight. Ten ml of Inst-Gel (Packard) was added to each sample after overnight incubation at 75° C. The samples were counted for DPM by liquid scintillation spectrometry. Values are expressed as DPM/gm tissue. A minimum of four animals/group were used for each experiment. Data are expressed as the mean fold-increase which is derived by dividing the treatment value by the control value. Numbers in parenthesis represent the number of experiments carried out for the particular condition.

bovine endothelial cells [7] = assay: Transport across high resistance monolayers of bovine endothelial cells on filters; assay type: in vitro ADME; settings: FIG. 3; compared to cell-free filters
Text: Still another means for assessing the tightness of junctions among endothelial cells in the blood-brain model of the invention is to compare the transport of a hydrophilic compound, e.g., sucrose, and a hydrophobic compound of similar size, e.g., chlorambucil, across filters with and without monolayered endothelial cells. When the transmonoloayer resistance is high, the transport of sucrose should be low compared to that of chlorambucil (or other hydrophobic compounds of similar size). Alternatively, when the resistance is high, the transport of sucrose should be much less (e.g., 50-fold or more) than across cell-free filters.

bovine endothelial cells [8] = settings: leaky tight junctions; cited from earlier work
[9] = Table 7, Experiment 1, intracarotid infusion, 3-4 animals

For `N[C@@H](Cc1ccc(O)c(O)c1)C(=O)O` [L-DOPA], the “penetration into the brain / BBB crossing” value (blood-brain barrier [1]) is listed as “can cross the BBB”.

In the case of `CC(C)C[C@H](NC(=O)[C@H](Cc1ccccc1)NC(=O)CNC(=O)CNC(=O)[C@@H](N)Cc1ccc(O)cc1)C(=O)O` [Enkephalin], the “Percent Analgesia” value ([2]; Experiment 1) is given as 2.8%, the “Percent Analgesia” value ([2]; Experiment 2) is given as 6.4% and the “penetration into the brain / BBB crossing” value (blood-brain barrier [1]) is given as “does not penetrate significantly into the brain”.

With TNFα the “lymphocyte binding, Count per Minute” value (brain endothelial cells) was 1430 Count per Minute and 1150 Count per Minute.

For `COc1ccc(C2CNC(=O)C2)cc1OC1CCCC1` (stereo not drawn) [Rolipram], the “effect of phosphodiesterase inhibitors on resistance” value [3] was “substantially higher” and the “inhibition of phosphodiesterase” value [4] was “inhibited”.

With `CCCCOc1cc(CC2CNC(=O)N2)ccc1OC` (stereo not drawn) [RO-20-1724] the “effect of phosphodiesterase inhibitors on resistance” value [3] was “substantially higher” and the “inhibition of phosphodiesterase” value [4] was “inhibited”.

With `C=C[C@@]1(C)CC(=O)[C@]2(O)[C@@]3(C)[C@@H](O)CCC(C)(C)[C@@H]3[C@H](O)[C@H](OC(C)=O)[C@@]2(C)O1` [Forskolin, forskolin] the “enhancement of transmonolayer electrical resistance” value ([3]; brain capillary endothelial cells) was “over 8 fold”.

Compound `CN[C@@H]1C[C@H]2O[C@@](C)([C@@H]1OC)n1c3ccccc3c3c4c(c5c6ccccc6n2c5c31)C(=O)NC4` [Staurosporine] has an activity at 0.01 µM ([3]; 1 h) of 108%, an activity at 0.03 µM ([3]; 1 h) of 64% and an activity at 0.1 µM ([3]; 1 h) of 5.5%. For the same compound, the activity at 0.01 µM ([3]; 2.5 h) was 20%, the activity at 0.03 µM ([3]; 2.5 h) was 7.7% and the activity at 0.1 µM ([3]; 2.5 h) was 0%. For the same compound, the activity at 0.01 µM ([3]; 24 h) was 5.2%, the activity at 0.03 µM ([3]; 24 h) was 2.3% and the activity at 0.1 µM ([3]; 24 h) was 0%. The “radioactivity remaining in the brain, ^3 H-Sucrose” value (blood-brain barrier [5]) was 8.7 × 10^3 DPM, the “radioactivity remaining in the brain, ^3 H-Sucrose” value (blood-brain barrier [5]; [9]) was 24.3 × 10^3 DPM and the “radioactivity remaining in the brain, ^125 I-BSA” value (blood-brain barrier [5]; [9]) was 835 DPM. The “radioactivity remaining in the brain, ^125 I-BSA” value (blood-brain barrier [5]; Table 7, Experiment 2, intracarotid infusion, 3-4 animals) was 520 DPM and the “effect on entry of tracers into the brain” value (blood-brain barrier [5]; intracarotid infusion) was “enhanced entry into the brain of both small (sucrose) and large (BSA) molecules”.

In the case of `Nc1ncnc2c1nc(Sc1ccc(Cl)cc1)n2[C@@H]1O[C@@H]2COP(=O)(O)O[C@H]2[C@H]1O` [cyclic AMP analogue, 8-(4-chlorophenylthio) cyclic AMP], the “effect on transmonolayer electrical resistance” value ([3]; Example 1, FIG. 1, 250 μM, 5% PDHS) is reported as “greatly increased transmonolayer electrical resistance”.

In the case of `Cc1[nH]c(=O)c(C#N)cc1-c1ccncc1` [milrinone], the “effect of phosphodiesterase inhibitors on resistance” value [3] is reported as “ineffective”.

For `CCCOc1ccccc1-c1nc2nn[nH]c2c(=O)[nH]1` [zaprinast], the “effect of phosphodiesterase inhibitors on resistance” value [3] was “ineffective”.

For `C[C@H](Cc1ccccc1)Nc1ncnc2c1ncn2[C@@H]1O[C@H](CO)[C@@H](O)[C@H]1O` [R-PIA, N^6 -(phenylisopropyl)-adenosine], the “increase of uptake by brain of small (sucrose) and large (BSA) molecules” value (blood-brain barrier [6]) was ≤ 300%.

For `OC[C@H]1O[C@@](CO)(O[C@H]2O[C@H](CO)[C@@H](O)[C@H](O)[C@H]2O)[C@@H](O)[C@@H]1O` [sucrose], the “transport across filters with cells” value (bovine endothelial cells [7]) is given as “almost entirely prevented from leaking between the cells” and the “difference in the rate of sucrose across filters with and without cells, previous models” value (bovine endothelial cells [8]) is given as 3 to 5 fold.

With `OC[C@H]1O[C@@H](n2cnc3c(NC4CCCC4)ncnc32)[C@H](O)[C@@H]1O` [CPA, cyclopentyladenosine] the “increase of uptake by brain of small (sucrose) and large (BSA) molecules” value (blood-brain barrier [6]) was ≤ 300%.

In the case of `COC(=O)[C@@]1(O)C[C@H]2O[C@]1(C)n1c3ccccc3c3c4c(c5c6ccccc6n2c5c31)C(=O)NC4` [K252a], the “reversibility of effect of protein kinase inhibitors” value [3] is reported as “reversible”, the “effect of protein kinase inhibitors on resistance” value ([3]; 10-200 nM) is reported as “markedly reduce the resistance” and the activity at 0.2 µM ([3]; 1 h) is reported as 79%. The activity at 0.2 µM ([3]; 2.5 h) was 25% and the activity at 0.2 µM ([3]; 24 h) was 24%.
